The results in this text go back to patent US9273290B2, “Method for producing phosphite dehydrogenase protein and use thereof” (HIROSHIMA UNIVERSITY, priority 2011, dated 2016).

Assay [1] concerns the target T1, Pseudomonas stutzeri WM88 phosphite dehydrogenase, wild type, SEQ ID NO: 3, C-terminal His tag fusion (PtxDPst) (Stutzerimonas stutzeri, UniProt O69054).
T1 construct: His tag (C); made in house; host or cells: E. coli Rosetta2 (DE3), plasmid pET21b
T1 sequence (O69054 1-336): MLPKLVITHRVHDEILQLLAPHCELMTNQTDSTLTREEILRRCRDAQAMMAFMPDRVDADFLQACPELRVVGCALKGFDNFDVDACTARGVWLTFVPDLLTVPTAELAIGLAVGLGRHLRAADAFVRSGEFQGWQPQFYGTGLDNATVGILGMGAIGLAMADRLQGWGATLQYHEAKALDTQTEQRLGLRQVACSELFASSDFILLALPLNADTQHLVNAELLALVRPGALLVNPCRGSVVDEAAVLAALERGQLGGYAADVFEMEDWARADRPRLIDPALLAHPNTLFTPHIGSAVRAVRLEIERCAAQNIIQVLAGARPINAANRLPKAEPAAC
In words: Activity of phosphite dehydrogenase protein in the presence of inhibitor. Format: biochemical. More on the design: key to relative value of OD340 (activity in the presence of inhibitor, control = 100): OD340 relative to no-protein negative control = 100. Conditions: 30° C., 60 minutes; for relative value of OD340 (activity in the presence of inhibitor, control = 100): 50 μL of 40 mM inhibitor in the reaction solution (500 μL in total); for activity in the presence of inhibitor (in words): 50 μL of 40 mM inhibitor in the reaction solution. An excerpt: (§1) By a well-known method, the base sequence of SEQ ID NO: 2 or a phosphite dehydrogenase gene (SEQ ID NO: 4) of P stutzeri WM88 was inserted into a plasmid pET21b (produced by Novagen) (an amino acid sequence of the protein encoded by the base sequence of SEQ ID NO: 4 is shown in SEQ ID NO: 3) to prepare (i) an expression vector of a fusion protein (see “PtxD4506” in FIG. 2) in which the C-terminal of the phosphite dehydrogenase protein of SEQ ID NO: 1 is labeled with a His tag or (ii) an expression vector of a fusion protein (see “PtxDPst” in FIG. 2) in which the C-terminal of the phosphite dehydrogenase protein of P stutzeri WM88 is labeled with a His tag.
(§2) The supernatant was supplied to a HisTrap column (produced by GE Healthcare) and, in accordance with protocols attached to the HisTrap column, a fusion protein in which a His tag was connected to the C-terminal of the phosphite dehydrogenase protein of SEQ ID NO: 1 was purified.
(§3) PtxD4506 and PtxDPst, which were purified with use of the HisTrap column in [3. […] An experimental method was based on a method described in the literature “Costas et al., Journal of Biological Chemistry, 2001, 276, 17429-17436.” The experimental method is briefly described below.
(§4) A reaction solution was prepared by mixing 100 μL of 100 mM MOPS-KOH (pH 7.25), 50 μL of 10 mM NAD, 5 μL of 5 mM phosphite, 50 μL of 40 mM inhibitor of various kinds (arsenite, nitrate, sulfate, or NaCl), 294 μL of H2O, and 1 μL of 0.5 mg/mL protein-containing solution (a PtxD4506-containing solution, a PtxDPst-containing solution, or a liquid which contained no protein (negative control)).
(§5) The reaction solution was reacted for 60 minutes. Note that the reaction solution containing the PtxD4506-containing solution was reacted at 45° C., and the reaction solution containing the PtxDPst-containing solution was reacted at 30° C. Subsequently, OD340 was measured. A relative value of OD340 of each sample was calculated relative to 100 of a value of OD340 of the reaction solution containing the liquid which contained no protein (negative control). Note that each experiment was conducted 4 times or more, and an average of relative values obtained in the 4 or 5 experiments was also calculated.

Assay [2] concerns the target T2, Ralstonia sp. strain 4506 phosphite dehydrogenase, SEQ ID NO: 1, C-terminal His tag fusion (PtxD4506) (Ralstonia sp. 4506, UniProt G4XDR8).
T2 sequence (G4XDR8 1-336): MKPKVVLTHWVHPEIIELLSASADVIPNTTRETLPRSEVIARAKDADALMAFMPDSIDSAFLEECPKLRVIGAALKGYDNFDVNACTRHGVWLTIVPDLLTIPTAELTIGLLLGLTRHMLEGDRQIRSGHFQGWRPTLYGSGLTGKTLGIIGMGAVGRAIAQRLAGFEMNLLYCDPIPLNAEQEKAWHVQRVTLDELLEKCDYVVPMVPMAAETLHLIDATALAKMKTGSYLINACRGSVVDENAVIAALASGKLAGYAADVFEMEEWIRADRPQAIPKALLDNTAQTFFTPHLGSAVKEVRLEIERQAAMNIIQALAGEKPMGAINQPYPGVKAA
The description is as above. Type of assay: biochemical. Conditions: 45° C., 60 minutes; for relative value of OD340 (activity in the presence of inhibitor, control = 100): 50 μL of 40 mM inhibitor in the reaction solution (500 μL in total); for activity in the presence of inhibitor (in words): 50 μL of 40 mM inhibitor in the reaction solution.
Text: as §1, §2, §3, §4, §5

The target of assay [3] is T1, Pseudomonas stutzeri WM88 phosphite dehydrogenase, wild type, SEQ ID NO: 3, C-terminal His tag fusion (PtxDPst). Put plainly: Reaction kinetic analysis: NADH production rate at varied NAD+ concentration. Type of assay: biochemical. Conditions: NAD+ 0.5 μM to 200 μM, 28° C., individual experiments 1-3.
Text: as §1
The supernatant was supplied to a HisTrap column (produced by GE Healthcare) and, in accordance with protocols attached to the HisTrap column, a fusion protein in which a His tag was connected to the C-terminal of the phosphite dehydrogenase protein of SEQ ID NO: 1 was purified. […]
Reaction rates of respective PtxD4506 and PtxDPst were calculated on the basis of (Reaction formula 1) shown in the section [Background Art].
Specifically, in the reaction system of (Reaction formula 1), a production rate of NADH was measured with use of 7.5 μg of each of the fusion proteins PtxD4506 and PtxDPst while a concentration of a substrate (NAD^+) was gradually changed from 0.5 μM to 200 μM. […]

In assay [4] the target is T2, Ralstonia sp. strain 4506 phosphite dehydrogenase, SEQ ID NO: 1, C-terminal His tag fusion (PtxD4506). The assay is described as above.
[5] abbreviates: pH 7.25, average of 4 or 5 experiments.
The mark [6] stands for this setting: pH 7.25, individual experiments 1-5.
Where [7] appears, read: NAD+ 0.5 μM to 200 μM, 40° C., individual experiments 1-3.

Where “and” joins values, the source holds several entries; their conditions need not be identical. Equal entries are not always repeated.

As to `O[As](O)O` [Arsenite], the “relative value of OD340 (activity in the presence of inhibitor, control = 100)” value is 86.6 in assay [1] (setting [5]); 82.3 and 90.4 and 88.6 and 91.4 and 90.7 in assay [1] (setting [6]); 101.6 in assay [2] (setting [5]); 102.6 and 102.2 and 101.7 and 101.3 and 100.2 in assay [2] (setting [6]). For the same compound, the results for the “activity in the presence of inhibitor (in words)” value in assay [1] and in assay [2] were “inhibited” and “maintained in a high level”, respectively.

Consider `NC(=O)c1ccc[n+]([C@@H]2O[C@H](COP(=O)([O-])OP(=O)(O)OC[C@H]3O[C@@H](n4cnc5c(N)ncnc54)[C@H](O)[C@@H]3O)[C@@H](O)[C@H]2O)c1` [NAD+], for which the Kcat is 3.235 s⁻¹ and 2.732 s⁻¹ and 2.513 s⁻¹ in assay [3]; 4.262 s⁻¹ and 4.068 s⁻¹ and 3.54 s⁻¹ in assay [4] (setting [7]). The Vmax (as a rule, the rate approached at saturating substrate) in assay [3] is 4.9 µmol/min/mg and 4.1 µmol/min/mg and 3.8 µmol/min/mg; in assay [4] (setting [7]), 6.4 µmol/min/mg and 6.1 µmol/min/mg and 5.3 µmol/min/mg. Further, in assay [4] (NAD+, PtxD4506 at 40° C., PtxDPst at 28° C.), the “Vmax of PtxD4506 relative to that of PtxDPst” value is “about 1.4 times”.

Turning to `O=[N+]([O-])O` [Nitrate], the “relative value of OD340 (activity in the presence of inhibitor, control = 100)” value in assay [1] (setting [5]) was 18.3; in assay [1] (setting [6]), 15.3 and 21.8 and 20.3 and 20.1 and 14.0; in assay [2] (setting [5]), 35.7; in assay [2] (setting [6]), 29.2 and 39.6 and 40.2 and 40.3 and 29.3. The “activity in the presence of inhibitor (in words)” value is “inhibited” in assay [1] and “maintained in a high level” in assay [2].

For `N.N.O=S(O)O` [Sulfite], the “relative value of OD340 (activity in the presence of inhibitor, control = 100)” value is 14.0 in assay [1] (setting [5]); 15.4 and 15.3 and 16.2 and 9.2 in assay [1] (setting [6]); 52.5 in assay [2] (setting [5]); 53.2 and 58.8 and 57.0 and 40.9 in assay [2] (setting [6]).

For `O=S(=O)(O)O` [sulfate], the “activity in the presence of inhibitor (in words)” value in assay [1] is reported as “inhibited”; in assay [2], “maintained in a high level”.
